Results reported in ChEMBL document CHEMBL3351783, “Structural insights into carbonic anhydrase IX isoform specificity of carbohydrate-based sulfamates” (J Med Chem, 2014).

target: Carbonic anhydrase 1 (Homo sapiens, UniProt P00915); assay: Inhibition of human recombinant carbonic anhydrase 1 by stopped-flow CO2 hydration assay
Sequence (P00915 whole entry): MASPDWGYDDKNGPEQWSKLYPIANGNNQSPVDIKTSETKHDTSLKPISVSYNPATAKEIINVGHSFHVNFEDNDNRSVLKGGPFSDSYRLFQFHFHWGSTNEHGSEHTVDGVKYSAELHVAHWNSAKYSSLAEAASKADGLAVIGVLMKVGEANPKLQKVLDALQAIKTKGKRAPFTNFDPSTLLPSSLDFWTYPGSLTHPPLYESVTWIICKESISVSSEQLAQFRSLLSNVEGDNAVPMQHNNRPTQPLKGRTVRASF

Structure (SMILES) | Ki [nM]
COC(=O)[C@H](CS(N)(=O)=O)NS(=O)(=O)[C@@H]1O[C@H](COC(C)=O)[C@@H](OC(C)=O)[C@H](OC(C)=O)[C@H]1OC(C)=O | > 20000
NS(=O)(=O)OC1CCN(S(=O)(=O)[C@@H]2O[C@H](CO)[C@@H](O)[C@H](O)[C@H]2O)CC1 | > 20000

target: Carbonic anhydrase 9 (Homo sapiens, UniProt Q16790); assay: Inhibition of human recombinant carbonic anhydrase 9 by stopped-flow CO2 hydration assay

Structure (SMILES) | Ki [nM]
COC(=O)[C@@H]1C[C@@H](OS(N)(=O)=O)CN1S(=O)(=O)[C@@H]1O[C@H](COC(C)=O)[C@@H](OC(C)=O)[C@H](OC(C)=O)[C@H]1OC(C)=O | 2
NS(=O)(=O)O[C@@H]1CCN(S(=O)(=O)[C@@H]2O[C@H](CO)[C@@H](O)[C@H](O)[C@H]2O)C1 | 2

The next lines start with the values.

Ki [nM] | Structure (SMILES)
215 | CC(=O)OC[C@H]1O[C@@H](S(=O)(=O)NCCCOS(N)(=O)=O)[C@H](OC(C)=O)[C@@H](OC(C)=O)[C@@H]1OC(C)=O
2 | CC(=O)OC[C@H]1O[C@@H](S(=O)(=O)N2CC[C@@H](OS(N)(=O)=O)C2)[C@H](OC(C)=O)[C@@H](OC(C)=O)[C@@H]1OC(C)=O
2 | NS(=O)(=O)OCCCNS(=O)(=O)[C@@H]1O[C@H](CO)[C@@H](O)[C@H](O)[C@H]1O
